Laboratory results: US8884061B2, “Compositions and methods of use of electron transport system inhibitors” (priority 2006, dated 2014)
In brackets after ≈: the same amount, converted by molar mass. Where two headings read alike, the source gives them in different places.

Columns and labels:
[1] = tested on: M. tuberculosis H37Rv; experiment: MIC, agar (7H11) dilution method; format: cell-based; conditions: Mycobacterium tuberculosis, H37RV
[2] = tested on: M. tuberculosis Kurono; experiment: MIC, agar (7H11) dilution method; format: cell-based; conditions: Mycobacterium tuberculosis; M. tuberculosis Kurono; agar (7H11) dilution; read-out: Minimum inhibitory concentrations (MIC)
[3] = tested on: M. bovis BCG Tokyo; experiment: microbe, parasite or virus in culture; format: cell-based; conditions: Mycobacterium tuberculosis variant bovis BCG, BCG, read-out: Minimum inhibitory concentrations (MIC)
[4] = tested on: M. avium Flamingo; experiment: MIC, agar (7H11) dilution method; format: cell-based; conditions: Mycobacterium avium, read-out: Minimum inhibitory concentrations (MIC)
[5] = tested on: M. intracellularae ATCC 15984; experiment: MIC, agar (7H11) dilution method; format: cell-based; conditions: read-out: Minimum inhibitory concentrations (MIC)
[6] = tested on: M. kansasii NIHJ1619; experiment: MIC, agar (7H11) dilution method; format: cell-based; conditions: Mycobacterium kansasii, read-out: Minimum inhibitory concentrations (MIC)
[7] = tested on: M. aurum; experiment: MIC, agar (7H11) dilution method; format: cell-based; conditions: Mycolicibacterium aurum, read-out: Minimum inhibitory concentrations (MIC)
[8] = tested on: M. fortuitum NIHJ1615; experiment: MIC, agar (7H11) dilution method; format: cell-based; conditions: Mycolicibacterium fortuitum, read-out: Minimum inhibitory concentrations (MIC)
[9] = tested on: M. smegmatis Takeo; experiment: MIC, agar (7H11) dilution method; format: cell-based; conditions: Mycolicibacterium smegmatis, read-out: Minimum inhibitory concentrations (MIC)
[10] = tested on: S. aureus ATCC 29213; experiment: MIC, other bacteria (Table 3); format: cell-based; conditions: Staphylococcus aureus, ATCC29213, inoculum size 10^6 CFU/ml, read-out: MIC
[11] = tested on: S. aureus ATCC 43300 (MRSA); experiment: MIC, other bacteria (Table 3); format: cell-based; conditions: Staphylococcus aureus, inoculum size 10^6 CFU/ml, read-out: MIC
[12] = tested on: VRSA 2441-T0041; experiment: MIC, other bacteria (Table 3); format: cell-based, S. aureus; conditions: Staphylococcus aureus; VRSA 2441-T0041, low level VCM-resistant; inoculum size 10^6 CFU/ml; read-out: MIC
[13] = tested on: VRSA 2441-T0044; experiment: MIC, other bacteria (Table 3); format: cell-based, S. aureus; conditions: Staphylococcus aureus, VRSA
[14] = tested on: MRSA 2441-05104; experiment: MIC, other bacteria (Table 3); format: cell-based, S. aureus; conditions: Staphylococcus aureus, inoculum size 10^6 CFU/ml, read-out: MIC
[15] = tested on: MRSA 2441-05112; experiment: MIC, other bacteria (Table 3); format: cell-based, S. aureus; conditions: Staphylococcus aureus, inoculum size 10^6 CFU/ml, read-out: MIC
[16] = tested on: MRSA 2441-05129; experiment: MIC, other bacteria (Table 3); format: cell-based, S. aureus; conditions: Staphylococcus aureus, inoculum size 10^6 CFU/ml, read-out: MIC
[17] = tested on: MRSA 2441-05223; experiment: MIC, other bacteria (Table 3); format: cell-based, S. aureus; conditions: Staphylococcus aureus, inoculum size 10^6 CFU/ml, read-out: MIC
[18] = tested on: MRSA 2441-05254; experiment: MIC, other bacteria (Table 3); format: cell-based, S. aureus; conditions: Staphylococcus aureus, inoculum size 10^6 CFU/ml, read-out: MIC
[19] = tested on: MRSA 2441-05262; experiment: MIC, other bacteria (Table 3); format: cell-based, S. aureus; conditions: Staphylococcus aureus, inoculum size 10^6 CFU/ml, read-out: MIC
[20] = tested on: S. epidermidis ATCC 12228; experiment: MIC, other bacteria (Table 3); format: cell-based; conditions: Staphylococcus epidermidis, ATCC12228, inoculum size 10^6 CFU/ml, read-out: MIC
[21] = tested on: MRSE 2442-05030; experiment: MIC, other bacteria (Table 3); format: cell-based, S. epidermidis; conditions: Staphylococcus epidermidis, inoculum size 10^6 CFU/ml, read-out: MIC
[22] = tested on: MRSE 2442-05047; experiment: MIC, other bacteria (Table 3); format: cell-based, S. epidermidis; conditions: Staphylococcus epidermidis, inoculum size 10^6 CFU/ml, read-out: MIC
[23] = tested on: MRSE 2442-05053; experiment: MIC, other bacteria (Table 3); format: cell-based, S. epidermidis; conditions: Staphylococcus epidermidis, inoculum size 10^6 CFU/ml, read-out: MIC
[24] = tested on: MRSE 2442-05060; experiment: MIC, other bacteria (Table 3); format: cell-based, S. epidermidis; conditions: Staphylococcus epidermidis, inoculum size 10^6 CFU/ml, read-out: MIC
[25] = tested on: MRSE 2442-05110; experiment: MIC, other bacteria (Table 3); format: cell-based, S. epidermidis; conditions: Staphylococcus epidermidis, inoculum size 10^6 CFU/ml, read-out: MIC
[26] = tested on: MRSE 2442-05118; experiment: MIC, other bacteria (Table 3); format: cell-based, S. epidermidis; conditions: Staphylococcus epidermidis, inoculum size 10^6 CFU/ml, read-out: MIC
[27] = tested on: E. faecalis ATCC 29212; experiment: MIC, other bacteria (Table 3); format: cell-based; conditions: Enterococcus faecalis, ATCC29212, inoculum size 10^6 CFU/ml, read-out: MIC
[28] = tested on: E. faecalis ATCC 51299 (VRE); experiment: MIC, other bacteria (Table 3); format: cell-based; conditions: Enterococcus faecalis, low level VCM-resistant, Van B, inoculum size 10^6 CFU/ml, read-out: MIC
[29] = tested on: E. faecalis NCTC 12201 (VRE); experiment: MIC, other bacteria (Table 3); format: cell-based; conditions: Enterococcus faecalis, high level VCM-resistant, Van A, inoculum size 10^6 CFU/ml, read-out: MIC
[30] = tested on: E. faecium ATCC 49224; experiment: MIC, other bacteria (Table 3); format: cell-based; conditions: Enterococcus faecium, ATCC49224; E. faecium ATCC 49224, GM-resistant; inoculum size 10^6 CFU/ml; read-out: MIC
[31] = tested on: E. faecium NCTC 12203 (VRE); experiment: MIC, other bacteria (Table 3); format: cell-based; conditions: Enterococcus faecium, high level VCM-resistant, Van A, inoculum size 10^6 CFU/ml, read-out: MIC
[32] = tested on: E. coli ATCC 25922; experiment: MIC, other bacteria (Table 3); format: cell-based; conditions: Escherichia coli, ATCC25922, inoculum size 10^6 CFU/ml, read-out: MIC
[33] = tested on: K. pneumoniae ATCC 27736; experiment: MIC, other bacteria (Table 3); format: cell-based; conditions: Klebsiella pneumoniae, ATCC27736, inoculum size 10^6 CFU/ml, read-out: MIC
[34] = tested on: P. mirabilis ATCC 4630; experiment: MIC, other bacteria (Table 3); format: cell-based; conditions: Proteus mirabilis, ATCC4630, inoculum size 10^6 CFU/ml, read-out: MIC
[35] = tested on: S. marsascens ATCC 14756; experiment: MIC, other bacteria (Table 3); format: cell-based; conditions: inoculum size 10^6 CFU/ml, read-out: MIC
[36] = tested on: P. aeruginosa ATCC 27853; experiment: MIC, other bacteria (Table 3); format: cell-based; conditions: Pseudomonas aeruginosa, ATCC27853, inoculum size 10^6 CFU/ml, read-out: MIC

C=CCN(C)CCCCCCCCOc1ccc(C(O)c2ccc(Cl)cc2)c(Cl)c1 (stereo not shown) [Cpd #21, (4-(8-(allyl(methyl)amino)octyloxy)-2-chlorophenyl)(4-chlorophenyl)methanol]
MIC ([1]; M. tuberculosis H37Rv, table line r9 (3rd of 5 so labelled), read-out: Minimum inhibitory concentrations (MIC)): 12.5 µg/mL (≈ 27.8 µM) | MIC ([1]; read-out: Minimum inhibitory concentrations (MIC), M. tuberculosis H37Rv, table line r7 (1st of 5 so labelled)): 25 µg/mL (≈ 55.5 µM) | MIC ([1]; read-out: Minimum inhibitory concentrations (MIC), M. tuberculosis H37Rv, table line r8 (2nd of 5 so labelled)): 25 µg/mL (≈ 55.5 µM) | MIC ([1]; read-out: Minimum inhibitory concentrations (MIC), M. tuberculosis H37Rv, table line r10 (4th of 5 so labelled)): 25 µg/mL (≈ 55.5 µM) | MIC ([1]; read-out: Minimum inhibitory concentrations (MIC), M. tuberculosis H37Rv, table line r11 (5th of 5 so labelled)): 25 µg/mL (≈ 55.5 µM) | MIC [2]: 25 µg/mL (≈ 55.5 µM) | MIC [3]: 25 µg/mL (≈ 55.5 µM) | MIC [4]: > 25 µg/mL | MIC [5]: > 25 µg/mL | MIC [6]: > 25 µg/mL | MIC [7]: > 25 µg/mL | MIC [8]: > 25 µg/mL | MIC [9]: > 25 µg/mL | MIC [10]: 100 µg/mL (≈ 222 µM) | MIC [11]: 100 µg/mL (≈ 222 µM) | MIC [12]: > 100 µg/mL | MIC [13]: > 100 µg/mL | MIC [14]: 50 µg/mL (≈ 111 µM) | MIC [15]: > 100 µg/mL | MIC [16]: > 100 µg/mL | MIC [17]: > 100 µg/mL | MIC [18]: > 100 µg/mL | MIC [19]: 100 µg/mL (≈ 222 µM) | MIC [20]: 50 µg/mL (≈ 111 µM) | MIC [21]: 50 µg/mL (≈ 111 µM) | MIC [22]: 50 µg/mL (≈ 111 µM) | MIC [23]: 50 µg/mL (≈ 111 µM) | MIC [24]: 50 µg/mL (≈ 111 µM) | MIC [25]: 50 µg/mL (≈ 111 µM) | MIC [26]: 50 µg/mL (≈ 111 µM) | MIC [27]: 100 µg/mL (≈ 222 µM) | MIC [28]: > 100 µg/mL | MIC [29]: 100 µg/mL (≈ 222 µM) | MIC [30]: 50 µg/mL (≈ 111 µM) | MIC [31]: 50 µg/mL (≈ 111 µM) | MIC [32]: > 100 µg/mL | MIC [33]: > 100 µg/mL | MIC [34]: > 100 µg/mL | MIC [35]: > 100 µg/mL | MIC [36]: > 100 µg/mL
